Source: PubChem BioAssay AID1996
Converted amounts (≈) assume the structure as drawn.

conditions: buffer; pH 7.4; 200.0 µM

solubility kinetic [µg/mL]	SMILES
1 (≈ 3.19 µM)	Cc1ccc2[nH]c(C)c(CCNC(=O)NC3CCCCC3)c2c1
8 (≈ 33.7 µM)	CC(=O)c1cnc(-c2ccccc2Cl)s1
> 45.2	C=CCNC(=O)N1CCC(c2nc3ccccc3s2)CC1
3.3 (≈ 10.2 µM)	CC1(C)CC2CC(C)(CN2C(=O)c2cc(-c3ccccc3)on2)C1 (configuration not stated)
38 (≈ 120 µM)	COc1cc2c(cc1OC)C(c1cccc(Cl)c1)CC(=O)N2 (configuration not stated)
39.3 (≈ 139 µM)	Cc1ccccc1C(=O)NCCNC(=O)c1ccccn1
2.5 (≈ 10.8 µM)	CC1=C(c2ccccc2)C(=S)NC(C)(C)C1
0.8 (≈ 2.08 µM)	O=S(=O)(Nc1ccc(-c2nc3cccnc3s2)cc1)c1ccccc1F
39.7 (≈ 119 µM)	Cc1cc(C(=O)NC2CCCN(Cc3ccc(Cl)cc3)C2)no1 (configuration not stated)
31.8 (≈ 106 µM)	Cc1ccc(OCc2ccc(C(=O)N3CCCC3)o2)cc1C
38.2 (≈ 116 µM)	CCOC(=O)Cn1cnc2scc(-c3ccc(C)cc3)c2c1=O
1.7 (≈ 4.82 µM)	CC(C)(C)NC(=O)N1CCN(c2nc3ccc(Cl)cc3s2)CC1
> 49.4	Cc1cccn2c(=O)c(C=O)c(N3CCC4(CC3)OCCO4)nc12
3.1 (≈ 12.2 µM)	Cc1ccc(C(=O)NC2=NCCS2)cc1Cl
33.8 (≈ 134 µM)	Cc1onc(-c2ccccc2)c1-c1ccnc(N)n1
45.9	Cc1cccc(NC(=O)C[n+]2ccc(N(C)C)cc2)c1.[Cl-]
> 46.4	CCOC(=O)Cc1csc(NC(=O)c2c(C)noc2C)n1
9.7 (≈ 24.5 µM)	CCN(c1ccccc1)S(=O)(=O)c1cccc(C(=O)Nc2ccc(C)cn2)c1
> 45.7	CCN(CC)C(=O)c1cccc(NC(=O)C2=COCCO2)c1

solubility kinetic [µg/mL]	SMILES
6 (≈ 21.2 µM)	COc1ccc(-c2nc(-c3ccncc3)no2)c(OC)c1
> 44	Cc1ccc(S(=O)(=O)Nc2c(C)nn(C)c2C)cc1C
41 (≈ 127 µM)	CCCCN(Cc1cc2cccc(C)c2[nH]c1=O)S(C)(=O)=O
43.2 (≈ 124 µM)	CCN(C(=O)COc1ccc(C(C)=O)cc1)c1cccc2ccccc12
8.9 (≈ 36.3 µM)	Cc1cccc(C(=O)NC2CCCCCCC2)c1
> 49.6	Cc1cccn2c(=O)nc(SCC(=O)NCc3ccco3)nc12
> 42.8	COc1ccccc1CNC(=O)c1ccc2c(c1)OCO2
24.8 (≈ 105 µM)	CC(C)C1Cc2nc(Cl)c(C#N)cc2CO1 (configuration not stated)
1 (≈ 3.75 µM)	Cn1c(=NC(=O)C(C)(C)C)sc2cccc(F)c21
0.6 (≈ 2.16 µM)	CC(C)(C)C(=O)Nc1nc2cc3c(cc2s1)OCO3
> 53.6	Cc1ccc(/C=C/C(=O)O)cc1S(=O)(=O)N1CCCc2ccccc21
> 44.8	COc1ccc(CNc2c(CO)cnc3c2cnn3C)cc1
32 (≈ 127 µM)	C=CCc1c(C)nc(N2CCSCC2)[nH]c1=O
> 45.5	CCC1(CC)NC(=O)N(Cc2nc3ccccc3s2)C1=O
< 0.2	O=C(Nc1cccnc1Cl)c1cc(-c2ccc(F)cc2)on1
8.5 (≈ 18.7 µM)	CC(=O)c1cccc(NC(=O)c2cc(=O)[nH]c3ccc(S(=O)(=O)N4CCOCC4)cc23)c1
35 (≈ 95.3 µM)	C#CCN1C(=O)S/C(=C\c2ccc(-c3ccc(C(=O)O)cc3C)o2)C1=O
> 57.2	CN(C(=O)CSc1nc2ccccc2c(=O)n1C)C1CCS(=O)(=O)C1 (configuration not stated)
> 37	Cc1cccc(C(=O)Nc2cccnc2Cl)c1

solubility kinetic [µg/mL]	SMILES
16.5 (≈ 56 µM)	Cc1cc(SCC(=O)c2ccc(Cl)cc2)nc(=O)[nH]1
> 34.7	Cc1nc(-c2cc(C#N)c(=O)[nH]c2C)cs1
4.4 (≈ 14.2 µM)	COc1ccc(CC2CC(=O)N(c3ccc(C)cc3)C2=O)cc1 (configuration not stated)
> 54.8	COc1ccccc1N1CCN(CC(O)c2c(C)[nH]c3ccccc23)CC1 (configuration not stated)
1 (≈ 2.31 µM)	COc1ccccc1N1CN(S(=O)(=O)c2ccc(C)cc2)c2nc3ccccc3nc21
> 43.6	FC(F)(F)c1ccc(Cl)c(NC2=NCCCCC2)c1
2 (≈ 7.77 µM)	Cc1ccc2oc(=O)n(Cc3ccc(F)cc3)c2c1
1.4 (≈ 3.95 µM)	COC(=O)c1cc2occc2n1Cc1nc(-c2ccccc2F)oc1C
0.5 (≈ 2.32 µM)	Cc1nc2c(C)cccc2c2c1CCS2
> 65.5	COc1ccc([N+](=O)[O-])cc1NS(=O)(=O)c1cccc(C(=O)OC2CCOC2=O)c1 (configuration not stated)
> 41.5	Cc1ccc(C(=O)NCCCN2CCOCC2)c(C)c1
0.5 (≈ 1.62 µM)	COc1cccc(NC(=O)Cn2cc(C=O)c3ccccc32)c1
1.9 (≈ 6.33 µM)	O=C(Nc1cccc([N+](=O)[O-])c1)c1ccc2nsnc2c1
3.5 (≈ 12.8 µM)	Cc1ccc(C(=O)NC(C)c2ccc(C)c(C)c2)s1 (configuration not stated)
> 50.5	O=C1Nc2ccc(S(=O)(=O)N(CCO)CCO)c3cccc1c23
> 42.2	Cc1cc(C)c(S(=O)(=O)c2ccccc2F)c(=O)[nH]1
31.4 (≈ 101 µM)	Cc1cccc(OCCCCn2c(CO)nc3ccccc32)c1
6.3 (≈ 19 µM)	Cc1ccc(NS(=O)(=O)c2ccc3c(c2)n(C)c(=O)n3C)cc1

Continued, compound first:

SMILES	solubility kinetic [µg/mL]
CC1CN(C(=O)CS(=O)(=O)Cc2ccc(Cl)cc2)CC(C)O1 (configuration not stated)	46.8 (≈ 135 µM)
C=C(C)Cn1c(CCNC(=O)c2ccco2)nc2ccccc21	> 46.4
CSCCC(NC(=O)c1ccco1)C(=O)NCC1CCCCC1 (configuration not stated)	> 50.8
O=C1NC(=S)N/C1=C/c1ccc2c(c1)OCO2	1.5 (≈ 6.04 µM)
Nc1ccccc1N=Cc1ccc(-c2cccc(Cl)c2)o1	< 0.3
CCOc1ccc([N+](=O)[O-])cc1CNC1CCCCCCC1.Cl	> 51.4
COP(=O)(OC)C(Nc1ccc([N+](=O)[O-])cc1)c1ccccc1 (configuration not stated)	> 50.4
Cl.N=c1sccn1CC(=O)Nc1ccc(Cl)cc1[N+](=O)[O-]	44.4
CC1CCN(C(=O)COC(=O)c2ccc([N+](=O)[O-])o2)CC1	> 44.4
O=C(NCC1CCCN(C2Cc3ccccc3C2)C1)c1cccs1 (configuration not stated)	40.1 (≈ 118 µM)
CCCCN1C(=O)c2ccc(C(=O)OCC(=O)NCCc3ccc(S(N)(=O)=O)cc3)cc2C1=O	42.1 (≈ 86.4 µM)
CCOC(=O)C1=C(N)Oc2cc(O)ccc2C1c1ccc(F)cc1F (configuration not stated)	< 0.7
O=C(OCC(=O)N1CCCC1)c1ccc(O)cc1	> 37.4
CCOC(=O)c1[nH]cnc1C(=O)Nc1ccc([N+](=O)[O-])cc1	5 (≈ 16.4 µM)
COC(=O)c1cc(NC(=O)c2cccnc2)cc(C(=O)OC)c1	5.6 (≈ 17.8 µM)
O=C(COC(=O)c1ccc(F)c(S(=O)(=O)N2CCOCC2)c1)NCc1ccc(Cl)cc1	7.1 (≈ 15.1 µM)
Cc1ccc(C(=O)Nc2ccc(Nc3ccccc3)cc2)c(Cl)c1	< 0.4
O=C(Nc1ccc(F)cc1F)c1ccccc1NC(=O)C1CC=CCC1C(=O)O (configuration not stated)	59.7 (≈ 149 µM)
CNC(=S)N1CCC(NC(=O)c2ccco2)CC1	> 40.1
O=C(Nc1nccs1)C(Cl)(Cl)Cl	> 36.8
COc1ccc(C(=O)Nc2ccncc2)cc1[N+](=O)[O-]	36 (≈ 132 µM)

SMILES	solubility kinetic [µg/mL]
CCCCCOC(=O)C1=C(C)NC(=O)NC1c1ccccc1 (configuration not stated)	4.9 (≈ 16.2 µM)
Cn1cc(-c2cc(C(=O)O)on2)cn1	> 29
O=S(=O)(c1ccccc1)N1CCN(Cc2ccccc2)CC1	0.5 (≈ 1.58 µM)
COc1cccc(CNCc2ccco2)c1O.O=C(O)C(=O)O	> 48.5
Cc1cccc(NC(=O)C(C)N2CC=C(c3ccccc3)CC2)c1 (configuration not stated)	2.9 (≈ 9.05 µM)
CN(C)c1ccc(NC(=O)CN2CCN(c3ccc(F)cc3)CC2)cc1	2.5 (≈ 7.01 µM)
COc1ccccc1N(CC(=O)Nc1ccc(C)cc1Cl)S(=O)(=O)c1cccs1	6.9 (≈ 15.3 µM)
O=S(=O)(NCCC1=CCCCC1)c1ccccc1Cl	22 (≈ 73.4 µM)
Cc1ccc(CN2CCCN(Cc3ccccc3C)S2(=O)=O)cc1	0.5 (≈ 1.45 µM)
CCCCN1C(=O)CCC(C(=O)O)C1c1ccc([N+](=O)[O-])cc1 (configuration not stated)	> 48.1
CC(C)(C)C(=O)N1CCN(c2ncccc2C(F)(F)F)CC1	> 47.3
C=CCN1C(=O)C(CC(=O)O)SC1=Nc1ccc(C(=O)O)cc1 (configuration not stated)	49.2 (≈ 147 µM)
COC(=O)C(N)Cc1ccc(OC)c([N+](=O)[O-])c1.Cl (configuration not stated)	> 43.6
CN(C(=O)NC1CCCCC1)c1ccccc1	> 34.8
CC(C#N)OC(=O)c1cccnc1SCC(=O)Nc1ccc2c(c1)OCO2 (configuration not stated)	20.8 (≈ 54 µM)
CCOC(=O)C(C)Oc1ccc(NC(=O)C(Cl)(Cl)Cl)cc1 (configuration not stated)	51.1 (≈ 144 µM)
CCN(C(=O)C(=O)c1c[nH]c2ccccc12)c1ccccc1	> 43.9
CC(=O)c1ccc(NC(=S)NC(=O)/C=C/c2ccccc2)cc1	< 0.3
CN1CCN(c2ncnc(Cl)c2N)CC1	> 34.2
CC(CN1C(C)CCCC1C)OC(=O)c1ccc(F)cc1.Cl (configuration not stated)	46.5
O=C(c1ccccc1[N+](=O)[O-])N1CCCC(C(=O)N2CCCCCC2)C1 (configuration not stated)	53 (≈ 147 µM)

SMILES	solubility kinetic [µg/mL]
CC(=O)c1ccc(NC(=S)NC(=O)/C=C/c2ccco2)cc1	1.4 (≈ 4.45 µM)
N#Cc1ccccc1OCC(=O)OCC(=O)NC1CCCCCC1	> 49.6
COc1cc(C)ccc1OCC(=O)OCC(=O)c1[nH]c(C)c(C(C)=O)c1C	13.5 (≈ 36.2 µM)
CCOc1cc(N2CCOCC2)c(OCC)cc1NC(=O)COC(=O)C1CCCN1S(=O)(=O)c1ccccc1F (configuration not stated)	84.7 (≈ 146 µM)
CCC(CC)C(=O)NCc1ccc(Cl)cc1	> 36
O=C(c1cccs1)N1CCN(c2ccc([N+](=O)[O-])cc2F)CC1	4.7 (≈ 14 µM)
COc1ccc(OCCn2cnc(Cl)c2Cl)cc1	41.1 (≈ 143 µM)
O=C(C[n+]1ccccc1)Nc1ccccc1C(F)(F)F.[Cl-]	> 47.5
Cc1ccc(S(=O)(=O)NCCCn2ccnc2)cc1C(=O)NC(C)C	> 54.7
Cl.O=C(CN1CCOCC1)c1ccc(Br)cc1	> 48.1
O=C(Nc1cc(S(=O)(=O)N2CCOCC2)ccc1N1CCOCC1)c1ccc([N+](=O)[O-])s1	6.1 (≈ 12.6 µM)
O=C(C1CCCCC1)N1CC(=O)N2CCc3ccccc3C2C1 (configuration not stated)	> 46.9
CSc1ccc(CN(C)C(=O)c2cc3ccccc3o2)cc1	10.3 (≈ 33.1 µM)
CSc1ccc(NC(=O)NCc2ccccc2)cc1	1.4 (≈ 5.14 µM)
COC(=O)c1ccc(COc2ccc(NC(C)=O)cc2)o1	> 43.4
CCOc1cc(C(=O)NC2CCCCCCC2)cc(OCC)c1OCC	2.3 (≈ 6.33 µM)
CCCCC(=O)OCC(=O)c1[nH]c(C)c(C(C)=O)c1C	36.9 (≈ 132 µM)
Cc1[nH]c(=O)[nH]c(=O)c1S(=O)(=O)Nc1ccc(F)c(Cl)c1	> 50.1
CC(=O)N1C(=O)NC(c2ccccc2)=C([N+](=O)[O-])C1c1ccccc1 (configuration not stated)	43.2 (≈ 128 µM)
